Laboratory results reported in patent US6613718B2, “Aryl ether derivatives and processes for their preparation and herbicidal and desiccant compositions containing them” (Ishihara Sangyo Kaisha, Ltd., priority 2001, dated 2003).

Columns and labels:
Format in all cases: in vivo
[1] = tested on: field corn (Zea mays L., var. Dekalb 535, CORN); assay: Post-emerge greenhouse screening, crop safety / corn selectivity (phytotoxicity rating); settings: 14 days after application
Method in brief: (§1)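 For foliar (post-emergence) testing, 2-3 leaf seedlings were sprayed with acetone solutions including 0.25% v/v non-ionic surfactant, rates 15–1000 g ai/ha, then bottom-watered. Soil-applied (pre-emergence) tests used pots sown one day before spraying. Ratings, 0–100, were made at 14 days.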

[2] = tested on: soybean (Glycine max L., var. Pella 86, SOY); assay: Post-emerge greenhouse screening, crop safety (phytotoxicity rating); settings: 14 days after application
Method in brief: as §1

[3] = tested on: upland rice (Oryza sp., var.Tebonnet, RICE); assay: as above; settings: 14 days after application
Method in brief: as §1

[4] = tested on: soybean (Glycine max L., var. Pella 86, SOY); assay: Pre-emerge greenhouse screening, crop safety (phytotoxicity rating); settings: 14 days after application
Method in brief: as §1

[5] = tested on: upland rice (Oryza sp., var.Tebonnet, RICE); assay: as above; settings: 14 days after application
Method in brief: as §1

[6] = tested on: field corn (Zea mays L., var. Dekalb 535, CORN); assay: as above; settings: 14 days after application
Method in brief: as §1

[7] = tested on: johnsongrass (Sorghum halepense, SORHA); assay: Post-emerge greenhouse herbicide activity screening, phytotoxicity rating; settings: 14 days after application
Method in brief: as §1

[8] = tested on: barnyardgrass (Echinochloa crus-galli, ECHCG); assay: as above; settings: 14 days after application
Method in brief: as §1

[9] = tested on: lambsquarters (Chenopodium album, CHEAL); assay: as above
Method in brief: as §1

[10] = tested on: ivyleaf morningglory (Ipomoea hederacea, IPOHE); assay: as above; settings: 14 days after application
Method in brief: as §1

[11] = tested on: velvetleaf (Abutilon theophrasti, ABUTH); assay: as above; settings: 14 days after application
Method in brief: as §1

[12] = tested on: common ragweed (Ambrosia artemisiifolia L., AMBEL); assay: as above
Method in brief: as §1

[13] = tested on: large crabgrass (Digitaria sanguinalis, DIGSA); assay: as above; settings: 14 days after application
Method in brief: as §1

[14] = tested on: sicklepod (Cassia obtusifolia, CASOB); assay: as above
Method in brief: as §1

[15] = tested on: green foxtail (Setaria viridis, SETVI); assay: as above
Method in brief: as §1

[16] = tested on: redroot pigweed (Amaranthus retroflexus, AMARE); assay: as above
Method in brief: as §1

[17] = tested on: johnsongrass (Sorghum halepense, SORHA); assay: Pre-emerge greenhouse herbicide activity screening, phytotoxicity rating; settings: 14 days after application
Method in brief: as §1

[18] = tested on: barnyardgrass (Echinochloa crus-galli, ECHCG); assay: as above; settings: 14 days after application
Method in brief: as §1

[19] = tested on: lambsquarters (Chenopodium album, CHEAL); assay: as above; settings: 14 days after application
Method in brief: as §1

[20] = tested on: ivyleaf morningglory (Ipomoea hederacea, IPOHE); assay: as above; settings: 14 days after application
Method in brief: as §1

[21] = tested on: velvetleaf (Abutilon theophrasti, ABUTH); assay: as above; settings: 14 days after application
Method in brief: as §1

[22] = tested on: common ragweed (Ambrosia artemisiifolia L., AMBEL); assay: as above; settings: 14 days after application
Method in brief: as §1

[23] = tested on: large crabgrass (Digitaria sanguinalis, DIGSA); assay: as above; settings: 14 days after application
Method in brief: as §1

[24] = tested on: sicklepod (Cassia obtusifolia, CASOB); assay: as above; settings: 14 days after application
Method in brief: as §1

[25] = tested on: green foxtail (Setaria viridis, SETVI); assay: as above; settings: 14 days after application
Method in brief: as §1

[26] = tested on: redroot pigweed (Amaranthus retroflexus, AMARE); assay: as above; settings: 14 days after application
Method in brief: as §1

[27] = 125 g ai/ha, 14 days after application
[28] = 250 g ai/ha, 14 days after application

## Cn1c(C(F)(F)F)cc(=O)n(-c2cc(Oc3ccccc3)c(C#N)cc2F)c1=S [Compound 1-69]
[1]; 125 g ai/ha
  CORN crop damage, phytotoxicity rating (0-100 scale): 0
[1]; 250 g ai/ha
  CORN crop damage, phytotoxicity rating (0-100 scale): 5
[2]; 125 g ai/ha
  SOY crop damage, phytotoxicity rating (0-100 scale): 0
[2]; 250 g ai/ha
  SOY crop damage, phytotoxicity rating (0-100 scale): 50
[3]; 125 g ai/ha
  RICE crop damage, phytotoxicity rating (0-100 scale): 0
[3]; 250 g ai/ha
  RICE crop damage, phytotoxicity rating (0-100 scale): 0
[4]; 125 g ai/ha
  SOY crop damage, phytotoxicity rating (0-100 scale): 30
[4]; 250 g ai/ha
  SOY crop damage, phytotoxicity rating (0-100 scale): 50
[5]; 125 g ai/ha
  RICE crop damage, phytotoxicity rating (0-100 scale): 50
[5]; 250 g ai/ha
  RICE crop damage, phytotoxicity rating (0-100 scale): 60
[6]; 125 g ai/ha
  CORN crop damage, phytotoxicity rating (0-100 scale): 5
[6]; 250 g ai/ha
  CORN crop damage, phytotoxicity rating (0-100 scale): 10
[7]; 125 g ai/ha
  SORHA phytotoxicity rating (0-100 scale): 0
[7]; 250 g ai/ha
  SORHA phytotoxicity rating (0-100 scale): 0
[8]; 125 g ai/ha
  ECHCG phytotoxicity rating (0-100 scale): 0
[8]; 250 g ai/ha
  ECHCG phytotoxicity rating (0-100 scale): 25
[9]; 31.3 g ai/ha
  CHEAL phytotoxicity rating (0-100 scale): 80
[9]; 62.5 g ai/ha
  CHEAL phytotoxicity rating (0-100 scale): 80
[9]; [27]
  CHEAL phytotoxicity rating (0-100 scale): 100
[9]; [28]
  CHEAL phytotoxicity rating (0-100 scale): 100
[10]; 125 g ai/ha
  IPOHE phytotoxicity rating (0-100 scale): 100
[10]; 250 g ai/ha
  IPOHE phytotoxicity rating (0-100 scale): 100
[11]; 125 g ai/ha
  ABUTH phytotoxicity rating (0-100 scale): 100
[11]; 250 g ai/ha
  ABUTH phytotoxicity rating (0-100 scale): 100
[12]; 31.3 g ai/ha
  AMBEL phytotoxicity rating (0-100 scale): 70
[12]; 62.5 g ai/ha
  AMBEL phytotoxicity rating (0-100 scale): 70
[12]; [27]
  AMBEL phytotoxicity rating (0-100 scale): 30
[12]; [28]
  AMBEL phytotoxicity rating (0-100 scale): 35
[13]; 125 g ai/ha
  DIGSA phytotoxicity rating (0-100 scale): 0
[13]; 250 g ai/ha
  DIGSA phytotoxicity rating (0-100 scale): 30
[14]; 31.3 g ai/ha
  CASOB phytotoxicity rating (0-100 scale): 50
[14]; 62.5 g ai/ha
  CASOB phytotoxicity rating (0-100 scale): 65
[14]; [27]
  CASOB phytotoxicity rating (0-100 scale): 75
[14]; [28]
  CASOB phytotoxicity rating (0-100 scale): 70
[15]; 31.3 g ai/ha
  SETVI phytotoxicity rating (0-100 scale): 0
[15]; 62.5 g ai/ha
  SETVI phytotoxicity rating (0-100 scale): 50
[15]; [27]
  SETVI phytotoxicity rating (0-100 scale): 0
[15]; [28]
  SETVI phytotoxicity rating (0-100 scale): 30
[16]; 31.3 g ai/ha
  AMARE phytotoxicity rating (0-100 scale): 100
[16]; 62.5 g ai/ha
  AMARE phytotoxicity rating (0-100 scale): 100
[16]; [27]
  AMARE phytotoxicity rating (0-100 scale): 99
[16]; [28]
  AMARE phytotoxicity rating (0-100 scale): 100
[17]; 125 g ai/ha
  SORHA phytotoxicity rating (0-100 scale): 95
[17]; 250 g ai/ha
  SORHA phytotoxicity rating (0-100 scale): 95
[18]; 125 g ai/ha
  ECHCG phytotoxicity rating (0-100 scale): 90
[18]; 250 g ai/ha
  ECHCG phytotoxicity rating (0-100 scale): 95
[19]; 125 g ai/ha
  CHEAL phytotoxicity rating (0-100 scale): 100
[19]; 250 g ai/ha
  CHEAL phytotoxicity rating (0-100 scale): 100
[20]; 125 g ai/ha
  IPOHE phytotoxicity rating (0-100 scale): 100
[20]; 250 g ai/ha
  IPOHE phytotoxicity rating (0-100 scale): 100
[21]; 125 g ai/ha
  ABUTH phytotoxicity rating (0-100 scale): 100
[21]; 250 g ai/ha
  ABUTH phytotoxicity rating (0-100 scale): 100
[22]; 125 g ai/ha
  AMBEL phytotoxicity rating (0-100 scale): 100
[22]; 250 g ai/ha
  AMBEL phytotoxicity rating (0-100 scale): 100
[23]; 125 g ai/ha
  DIGSA phytotoxicity rating (0-100 scale): 99
[23]; 250 g ai/ha
  DIGSA phytotoxicity rating (0-100 scale): 100
[24]; 125 g ai/ha
  CASOB phytotoxicity rating (0-100 scale): 100
[24]; 250 g ai/ha
  CASOB phytotoxicity rating (0-100 scale): 99
[25]; 125 g ai/ha
  SETVI phytotoxicity rating (0-100 scale): 100
[25]; 250 g ai/ha
  SETVI phytotoxicity rating (0-100 scale): 100
[26]; 125 g ai/ha
  AMARE phytotoxicity rating (0-100 scale): 100
[26]; 250 g ai/ha
  AMARE phytotoxicity rating (0-100 scale): 100
